Laboratory results from ChEMBL document CHEMBL4627304, “DNA sequence-specific ligands. XVIII. Synthesis, physico-chemical properties; genetic, virological, and biochemical studies of fluorescent dimeric bisbenzimidazoles DBPA(n)” (Bioorg Med Chem, 2020).
In brackets after ≈: the same amount, converted by molar mass. Activity calls are given as the source filed them. The calls are words filed in the database; no cut-off is given here.

Legend:
[1] = Drug penetration in human HCT116 cells nucleus at 200 uM measured after 2 days by fluorescence microscopy; assay type: ADME, subcellular; details: hct-116, 48 h
[2] = Solubility of the compound in water; assay type: physicochemical; details: buffer
[3] = target: T1, Transcriptional activator protein LuxR (Aliivibrio fischeri) (UniProt P12746); experiment: (§1) Inhibition of Aliivibrio fischeri LuxR quorum sensing system expressed in Escherichia coli MG1655 pVFR1 harboring Prf promoter assessed as reduction in LuxR transcriptional activity by measuring Lux gene expression in presence of LuxR protein activator and presence of 10^-6 M AHL by bioluminescence assay relative to control
T1 sequence (whole entry): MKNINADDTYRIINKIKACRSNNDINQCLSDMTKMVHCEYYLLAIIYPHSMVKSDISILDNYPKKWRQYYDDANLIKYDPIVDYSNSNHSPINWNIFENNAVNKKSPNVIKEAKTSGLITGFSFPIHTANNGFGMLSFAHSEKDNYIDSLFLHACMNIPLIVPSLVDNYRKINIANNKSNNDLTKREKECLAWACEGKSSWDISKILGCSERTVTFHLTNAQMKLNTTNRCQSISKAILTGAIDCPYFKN

[4] = system: Aliivibrio fischeri; experiment: Binding affinity to Aliivibrio fischeri H-NS dependent Prf promoter assessed as luminescence intensity measured after 3 hrs by bioluminescence assay relative to control
[5] = target: T1, Transcriptional activator protein LuxR (Aliivibrio fischeri); experiment: as §1, with “10^-8” for “10^-6”
[6] = system: Calf thymus DNA; experiment: Binding affinity to calf thymus DNA assessed as hyperchromic effect by UV-Vis spectroscopy; assay type: nucleic-acid assay; details: Bos taurus
[7] = system: Calf thymus DNA; experiment: Binding affinity to calf thymus DNA assessed as appearance of positive band by cholesteric liquid crystal dispersion-based circular dichroism method; assay type: nucleic-acid assay; details: Bos taurus
[8] = system: Aliivibrio fischeri; experiment: Binding affinity to Aliivibrio fischeri H-NS dependent PluxC promoter assessed as luminescence intensity measured after 3 hrs by bioluminescence assay relative to control
[9] = system: HCT-116; experiment: Cytotoxicity against human HCT116 cells assessed as reduction in cell viability by MTT assay; assay type: cell-based
[10] = system: Calf thymus DNA; experiment: Binding affinity to calf thymus DNA by fluorescence spectra analysis; assay type: nucleic-acid assay; details: Bos taurus
[11] = (§2) Selectivity index, ratio of CC50 for cytotoxicity against African green monkey Vero cells assessed as reduction in cell viability measured after 72 hrs by MTT assay to EC50 for antiviral activity against Herpes simplex virus 1 infected in African green monkey vero cells assessed as reduction in plaque formation treated 1 hr post viral infection; assay type: toxicity, cell-based; details: read-out: Ratio CC50/EC50
[12] = Cytotoxicity against human NKE cells assessed as reduction in cell viability by MTT assay; assay type: cell-based
[13] = system: Aliivibrio logei; experiment: Binding affinity to Aliivibrio logei H-NS dependent Pr2 promoter assessed as luminescence intensity measured after 3 hrs by bioluminescence assay relative to control
[14] = system: MCF7; experiment: Cytotoxicity against human MCF7 cells assessed as reduction in cell viability by MTT assay; assay type: cell-based
[15] = system: Aliivibrio logei; experiment: Binding affinity to Aliivibrio logei H-NS dependent Pr1 promoter assessed as luminescence intensity measured after 3 hrs by bioluminescence assay relative to control
[16] = target: Human immunodeficiency virus type 1 integrase (Human immunodeficiency virus 1, UniProt Q7ZJM1); experiment: Inhibition of recombinant HIV1 integrase expressed in Escherichia coli Rosetta assessed as reduction in 3' end processing activity using [32P]-labelled U5B/U5A DNA as substrate measured after 2 hrs by polyacrylamide gel electrophoresis method
[17] = target: T1, Transcriptional activator protein LuxR (Aliivibrio fischeri); experiment: as §1, with “10^-7” for “10^-6”
[18] = target: T1, Transcriptional activator protein LuxR (Aliivibrio fischeri); experiment: as §1, with “and absence” for “and presence”, “of” for “of 10^-6 M”
[19] = as §2, with “Vero” for “vero”, “pretreated with compound for” for “treated”, “followed by” for “post”, “infection at 0.01 PFU/cells for 1 hr by plaque reduction assay” for “infection”; assay type: toxicity, cell-based; details: read-out: Ratio CC50/EC50
[20] = system: Human alphaherpesvirus 1; experiment: Antiviral activity against Herpes simplex virus 1 infected in African green monkey vero cells assessed as reduction in plaque formation treated 1 hr post viral infection by plaque reduction assay; assay type: functional, organism-based; details: Human alphaherpesvirus 1, Vero

Human immunodeficiency virus type 1 integrase, sequence (Q7ZJM1 whole entry): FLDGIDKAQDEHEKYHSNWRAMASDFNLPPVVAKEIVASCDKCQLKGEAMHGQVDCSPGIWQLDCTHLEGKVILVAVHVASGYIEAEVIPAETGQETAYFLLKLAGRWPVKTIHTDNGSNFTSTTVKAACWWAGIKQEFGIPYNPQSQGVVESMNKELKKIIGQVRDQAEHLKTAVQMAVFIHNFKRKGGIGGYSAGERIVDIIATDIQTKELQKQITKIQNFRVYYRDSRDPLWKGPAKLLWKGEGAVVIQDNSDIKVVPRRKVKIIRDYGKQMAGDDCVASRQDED

SMILES: CN(C)CCCNC(=O)c1ccc2nc(-c3ccc4nc(CNC(=O)CCN5CCN(CCC(=O)NCc6nc7ccc(-c8nc9ccc(C(=O)NCCCN(C)C)cc9[nH]8)cc7[nH]6)CC5)[nH]c4c3)[nH]c2c1
- Drug uptake [1]: Active
- solubility [2]: Soluble
- fold change (FC) [3]: 8
- Flu intensity [4]: 122000
- fold change (FC) [5]: 1
- Activity [6]: Active
- Activity [7]: Active
- Flu intensity [8]: 110000
- IC50 [9]: > 300 µM
- Activity [10]: Active
- selectivity ratio at 72 h [11]: 18
- IC50 [12]: > 300 µM
- Flu intensity [13]: 150000
- IC50 [14]: > 300 µM
- Flu intensity [15]: 210000
- IC50 [16]: 2.6 µM
- fold change (FC) [17]: 3
- fold change (FC) [18]: 27
- selectivity ratio at 72 h [19]: 703
- EC50 [20]: 30 µg/mL (≈ 30.7 µM)

SMILES: CN1CCN(c2ccc3nc(-c4ccc5nc(CNC(=O)CCCCN6CCN(CCCCC(=O)NCc7nc8ccc(-c9nc%10ccc(N%11CCN(C)CC%11)cc%10[nH]9)cc8[nH]7)CC6)[nH]c5c4)[nH]c3c2)CC1
- IC50 [16]: 3.9 µM

SMILES: CN(C)CCCNC(=O)c1ccc2nc(-c3ccc4nc(CNC(=O)CCCCN5CCN(CCCCC(=O)NCc6nc7ccc(-c8nc9ccc(C(=O)NCCCN(C)C)cc9[nH]8)cc7[nH]6)CC5)[nH]c4c3)[nH]c2c1
- Drug uptake [1]: Active
- solubility [2]: Soluble
- Flu intensity [4]: 4300
- Activity [6]: Active
- Activity [7]: Active
- Flu intensity [8]: 3500
- IC50 [9]: > 500 µM
- selectivity ratio at 72 h [11]: 34
- IC50 [12]: > 500 µM
- Flu intensity [13]: 1800
- IC50 [14]: > 500 µM
- Flu intensity [15]: 1000
- IC50 [16]: 1.1 µM
- EC50 [20]: 31 µg/mL (≈ 30 µM)

SMILES: CN1CCN(c2ccc3nc(-c4ccc5nc(CNC(=O)CCCN6CCN(CCCC(=O)NCc7nc8ccc(-c9nc%10ccc(N%11CCN(C)CC%11)cc%10[nH]9)cc8[nH]7)CC6)[nH]c5c4)[nH]c3c2)CC1
- IC50 [16]: 9.9 µM

SMILES: CN1CCN(c2ccc3nc(-c4ccc5nc(CNC(=O)CN6CCN(CC(=O)NCc7nc8ccc(-c9nc%10ccc(N%11CCN(C)CC%11)cc%10[nH]9)cc8[nH]7)CC6)[nH]c5c4)[nH]c3c2)CC1
- IC50 [16]: > 15 µM

SMILES: CN1CCN(c2ccc3nc(-c4ccc5nc(CNC(=O)CCN6CCN(CCC(=O)NCc7nc8ccc(-c9nc%10ccc(N%11CCN(C)CC%11)cc%10[nH]9)cc8[nH]7)CC6)[nH]c5c4)[nH]c3c2)CC1
- IC50 [16]: 7 µM

SMILES: CN(C)CCCNC(=O)c1ccc2nc(-c3ccc4nc(CN)[nH]c4c3)[nH]c2c1
- selectivity ratio at 72 h [11]: 35
- selectivity ratio at 72 h [19]: 11
- EC50 [20]: 27 µg/mL (≈ 69 µM)

SMILES: Nc1nc2c(ncn2COCCO)c(=O)[nH]1 [ACYCLOVIR]
- selectivity ratio at 72 h [11]: 916
- selectivity ratio at 72 h [19]: 86
- EC50 [20]: 1.2 µg/mL (≈ 5.33 µM)

SMILES: CN(C)CCCNC(=O)c1ccc2nc(-c3ccc4nc(CNC(=O)CN5CCN(CC(=O)NCc6nc7ccc(-c8nc9ccc(C(=O)NCCCN(C)C)cc9[nH]8)cc7[nH]6)CC5)[nH]c4c3)[nH]c2c1
- Drug uptake [1]: Active
- solubility [2]: Soluble
- Flu intensity [4]: 4100
- Flu intensity [8]: 38000
- IC50 [9]: > 200 µM
- selectivity ratio at 72 h [11]: 34
- IC50 [12]: > 200 µM
- Flu intensity [13]: 18000
- IC50 [14]: > 200 µM
- Flu intensity [15]: 1700
- IC50 [16]: 2.1 µM
- selectivity ratio at 72 h [19]: 5750
- EC50 [20]: 16.7 µg/mL (≈ 17.6 µM)

SMILES: CN(C)CCCNC(=O)c1ccc2nc(-c3ccc4nc(CNC(=O)CCCN5CCN(CCCC(=O)NCc6nc7ccc(-c8nc9ccc(C(=O)NCCCN(C)C)cc9[nH]8)cc7[nH]6)CC5)[nH]c4c3)[nH]c2c1
- Drug uptake [1]: Active
- solubility [2]: Soluble
- Flu intensity [4]: 4400
- Flu intensity [8]: 17000
- IC50 [9]: > 500 µM
- Activity [10]: Active
- selectivity ratio at 72 h [11]: 70
- IC50 [12]: > 500 µM
- Flu intensity [13]: 50000
- IC50 [14]: > 500 µM
- Flu intensity [15]: 3300
- IC50 [16]: 1.8 µM
- selectivity ratio at 72 h [19]: 95
- EC50 [20]: 15 µg/mL (≈ 14.9 µM)
